The values that follow come from paper PMC3323550, “Functional Characterization of EngA^MS, a P-Loop GTPase of Mycobacterium smegmatis” (PLoS ONE, 2012).

Data set [1] addresses T1, EngA^MS (MSMEG_3738) (Mycolicibacterium smegmatis, UniProt A0QYP9).
T1 construct: gene der
T1 sequence (A0QYP9 1-471): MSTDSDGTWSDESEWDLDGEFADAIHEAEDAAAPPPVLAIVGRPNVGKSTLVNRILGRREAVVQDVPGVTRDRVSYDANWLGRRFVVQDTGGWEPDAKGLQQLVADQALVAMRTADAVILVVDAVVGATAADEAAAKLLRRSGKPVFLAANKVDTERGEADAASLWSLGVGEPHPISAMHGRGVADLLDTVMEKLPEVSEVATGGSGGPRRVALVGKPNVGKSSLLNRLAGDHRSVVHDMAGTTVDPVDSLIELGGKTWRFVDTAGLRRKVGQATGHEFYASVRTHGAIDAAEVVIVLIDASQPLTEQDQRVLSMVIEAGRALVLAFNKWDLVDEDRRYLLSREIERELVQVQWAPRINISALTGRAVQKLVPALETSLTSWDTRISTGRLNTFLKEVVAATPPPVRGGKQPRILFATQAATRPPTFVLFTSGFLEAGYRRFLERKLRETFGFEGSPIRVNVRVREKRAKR
In words: colorimetric Pi release GTPase assay. It is filed as biochemical.

The target in data set [2] is T2, EngA^MS (MSMEG_3738) (Mycolicibacterium smegmatis, UniProt A0QYP9, D154N).
T2 construct: gene der
T2 sequence (A0QYP9 entry or part of it D154N): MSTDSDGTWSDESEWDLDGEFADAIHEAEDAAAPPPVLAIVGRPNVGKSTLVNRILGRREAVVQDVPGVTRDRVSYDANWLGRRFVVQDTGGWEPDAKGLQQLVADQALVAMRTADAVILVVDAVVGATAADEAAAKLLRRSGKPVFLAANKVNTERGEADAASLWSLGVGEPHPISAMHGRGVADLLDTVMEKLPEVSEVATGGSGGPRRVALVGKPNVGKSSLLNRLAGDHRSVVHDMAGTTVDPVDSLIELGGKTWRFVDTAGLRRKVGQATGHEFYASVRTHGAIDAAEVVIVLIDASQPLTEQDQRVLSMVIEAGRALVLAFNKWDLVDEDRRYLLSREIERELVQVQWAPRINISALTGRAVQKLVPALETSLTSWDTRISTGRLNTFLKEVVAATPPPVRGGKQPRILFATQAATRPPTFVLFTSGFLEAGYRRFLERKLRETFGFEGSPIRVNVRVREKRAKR
In words: fluorescent mant-nucleotide binding assay, single concentration. As to conditions: 4 µM protein, 1 µM mant-GDP, 40 mM Tris-Cl pH 8.0, 2 mM MgCl2, 40% glycerol, room temperature; labelled compound.

Data set [3] has as its target T3, EngA^MS (MSMEG_3738) (Mycolicibacterium smegmatis, UniProt A0QYP9, D331N).
T3 construct: gene der
The data set is described as above. To be noted: 4 µM protein, 1 µM mant-GDP, 40 mM Tris-Cl pH 8.0, 2 mM MgCl2, 40% glycerol, room temperature; labelled compound.

Substrate in data set [4]: Nc1nc2c(ncn2[C@@H]2O[C@H](COP(=O)(O)OP(=O)(O)OP(=O)(O)O)[C@@H](O)[C@H]2O)c(=O)[nH]1
In words: colorimetric Pi release GTPase assay. As to conditions: 40 mM Tris-Cl pH 8.0, 2 mM MgCl2, 40% glycerol, 1 h, no GDP. Format: biochemical, Mycolicibacterium smegmatis.

Usually inhibition stands for the change of the read-out against control, counted positive when it falls. Low readings indicate a response near the control, high ones a response far below the control. What is called Km is the concentration of substrate that gives half-maximal velocity. Usually kcat stands for the maximal rate divided by the concentration of active sites.

T3 sequence (A0QYP9 entry or part of it D331N): as the sequence (A0QYP9 entry or part of it D154N) above, with N154D, D331N counted along it

On to `Nc1nc2c(ncn2[C@@H]2O[C@H](COP(=O)(O)OP(=O)(O)O)[C@@H](O)[C@H]2O)c(=O)[nH]1` [GDP], for which, in data set [1], the inhibition at 200 µM was determined as 40%.
Consider `CNc1ccccc1C(=O)O[C@H]1[C@@H](O)[C@H](n2cnc3c(=O)[nH]c(N)nc32)O[C@@H]1COP(=O)(O)OP(=O)(O)O` [mant-GDP], for which the “% reduction in binding affinity vs wild-type” value in data set [2] and in data set [3] was ~ 50% throughout.

B1: EngA^MS (MSMEG_3738) (Mycolicibacterium smegmatis MC2 155) (protein)
chain: T1 sequence (A0QYP9 1-471)
In the case of B1, in data set [4], the Km is 39 µM and the kcat was determined as 8.3e-05 s⁻¹.
